Experiments:
HDAC 1 = HDAC 1 (Homo sapiens, UniProt Q13547); assay: HDAC 1 inhibition assay with about 3 hours enzyme/compound preincubation (fluorophore/quencher peptide substrate); assay type: biochemical; conditions: 3-hour preincubation of enzyme with compound; read-out: HDAC 1 inhibitory activity (IC50 [μM]) (3-hour preincubation)
Procedure: HDAC inhibitory activity of the compound of Example 1 was measured by two types of assays in which HDAC 1 was used as a target molecule. The first assay was carried out without preincubation after addition of the enzyme. The test compound was suspended in and titrated in dmso. It was then spotted into a 384-well test plate. The enzyme, HDAC 1, was diluted in assay buffer containing 25 mM Tris-HCl (pH 8.0), 137 mM NaCl, 2.7 mM KCl, and 0.01% Tween-20 and added to the pre-spotted compound. The peptide substrate containing a fluorophore/quencher pair was diluted in the same assay buffer and added to the compound/enzyme mix initiating the reaction. The reaction incubated at room temperature for about 45 minutes. A concentrated developer solution was diluted in the assay buffer, and added to the reaction. The reaction was incubated at room temperature for about 15 minutes and relative fluorescence was read on an instrument reader.
The second assay is similar to the first assay described above, except that preincubation is carried out for about 3 hours after the enzyme is introduced. The test compound was suspended in, and titrated in DMSO. It was then spotted into a 384-well test plate. The enzyme, HDAC 1, was diluted in the same assay buffer as used in the previous assay and added to the pre-spotted compound. The enzyme/compound mix was incubated at room temperature for about 3 hours. The peptide substrate containing a fluorophore/quencher pair was diluted in the assay buffer and added to the compound/enzyme mix initiating the reaction. The reaction incubated at room temperature for 45 minutes. A concentrated developer solution was diluted in the assay buffer, and added to the reaction. The reaction was incubated at room temperature for about 15 minutes and relative fluorescence was read on an instrument reader.

CDK2 = CDK2 (Homo sapiens, UniProt P24941); assay: CDK2 inhibition; assay type: biochemical

Chain of HDAC 1 (Q13547 whole entry, species assumed): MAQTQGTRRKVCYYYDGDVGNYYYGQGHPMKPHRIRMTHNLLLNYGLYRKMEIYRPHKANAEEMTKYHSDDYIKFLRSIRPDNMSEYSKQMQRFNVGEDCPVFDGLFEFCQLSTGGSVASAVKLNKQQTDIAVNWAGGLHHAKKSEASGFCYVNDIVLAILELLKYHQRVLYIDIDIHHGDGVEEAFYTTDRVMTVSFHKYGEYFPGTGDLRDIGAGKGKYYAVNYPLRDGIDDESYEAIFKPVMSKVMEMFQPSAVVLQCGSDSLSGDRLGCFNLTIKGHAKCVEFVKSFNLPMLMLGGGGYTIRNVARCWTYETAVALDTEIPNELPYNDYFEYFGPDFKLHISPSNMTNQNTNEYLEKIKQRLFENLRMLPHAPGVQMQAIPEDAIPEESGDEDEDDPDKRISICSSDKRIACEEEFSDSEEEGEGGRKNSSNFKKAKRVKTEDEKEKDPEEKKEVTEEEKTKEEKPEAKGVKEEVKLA

IC50 (HDAC 1)	IC50 (CDK2)	SMILES
0.0818 µM	0.18 µM	O=C(NO)c1ccc(Nc2nccc(-c3c(C(F)(F)F)nc4ccccn34)n2)cc1 [Example 15, N-Hydroxy-4-[4-(2-trifluoromethyl-imidazo[1,2-a]pyridin-3-yl)-pyrimidin-2-ylamino]-benzamide]
1.8 µM	0.56 µM	Cc1nc2ccccn2c1-c1ccnc(Nc2nc(C(=O)NO)cs2)n1 [Example 61, N-hydroxy-2-(4-(2-methylimidazo[1,2-a]pyridin-3-yl)pyrimidin-2-ylamino)thiazole-4-carboxamide]
0.251 µM	0.09 µM	Cc1nc2c(F)cccn2c1-c1ccnc(Nc2ccc(C(=O)NO)cc2)n1 [Example 44, 4-[4-(8-Fluoro-2-methyl-imidazo[1,2-a]pyridin-3-yl)-pyrimidin-2-ylamino]-N-hydroxy-benzamide]
0.164 µM	0.03 µM	Cc1nc2ccccn2c1-c1ccnc(Nc2cc(C(=O)NO)cs2)n1 [Example 60, N-hydroxy-5-(4-(2-methylimidazo[1,2-a]pyridin-3-yl)pyrimidin-2-ylamino)thiophene-3-carboxamide]
> 50 µM		Cc1nc2ccccn2c1-c1ccnc(Nc2cccc(C(=O)Nc3ccccc3N)c2)n1 [Example 4, N-(2-Amino-phenyl)-3-[4-(2-methyl-imidazo[1,2-a]pyridin-3-yl)-pyrimidin-2-ylamino]-benzamide]
0.526 µM		Cc1nc2ccccn2c1-c1ccnc(Nc2cnc(C(=O)NO)cn2)c1 [Example 76, N-hydroxy-5-(4-(2-methylimidazo[1,2-a]pyridin-3-yl)pyridin-2-ylamino)pyrazine-2-carboxamide]
0.669 µM		Cc1nc2ccccn2c1-c1ccnc(Nc2nnc(C(=O)NO)s2)c1 [Example 75, N-hydroxy-5-(4-(2-methylimidazo[1,2-a]pyridin-3-yl)pyridin-2-ylamino)-1,3,4-thiadiazole-2-carboxamide]

The remaining lines, values behind:

SMILES	IC50 (HDAC 1)	IC50 (CDK2)
Nc1ccccc1NC(=O)c1cccc(Nc2nccc(-c3cnc4ccccn34)n2)c1 [Example 8, N-(2-Amino-phenyl)-3-(4-imidazo[1,2-a]pyridin-3-yl-pyrimidin-2-ylamino)-benzamide]	> 50 µM	0.144 µM
Cc1nc2cc(C(=O)NCCN3CCOCC3)ccn2c1-c1ccnc(Nc2ccc(C(=O)Nc3ccccc3N)cc2)n1 [Example 25, 3-(2-(4-(2-aminophenylcarbamoyl)phenylamino)pyrimidin-4-yl)-2-methyl-N-(2-morpholinoethyl)imidazo[1,2-a]pyridine-7-carboxamide]	0.128 µM	1.03 µM
Cc1nc2ccc(C(=O)N3CCN(C)CC3)cn2c1-c1ccnc(Nc2ccc(C(=O)Nc3ccccc3N)cc2)n1 [Example 39, N-(2-Amino-phenyl)-4-{4-[2-methyl-6-(4-methyl-piperazine-1-carbonyl)-imidazo[1,2-a]pyridin-3-yl]-pyrimidin-2-ylamino}-benzamide]	0.563 µM	7.94 µM
Cc1nc2cc(C(=O)O)ccn2c1-c1ccnc(Nc2ccc(C(=O)Nc3ccccc3N)cc2)n1 [Example 28, 3-{2-[4-(2-Amino-phenylcarbamoyl)-phenylamino]-pyrimidin-4-yl}-2-methyl-imidazo[1,2-a]pyridine-7-carboxylic acid]	0.621 µM	2.53 µM
Cc1nc2ccc(C(=O)NCCN(C)C)cn2c1-c1ccnc(Nc2ccc(C(=O)Nc3ccccc3N)cc2)n1 [Example 37, 3-(2-(4-(2-aminophenylcarbamoyl)phenylamino)pyrimidin-4-yl)-N-(2-(dimethylamino)ethyl)-2-methylimidazo[1,2-a]pyridine-6-carboxamide]	0.132 µM	1.88 µM
COc1ccn2c(-c3ccnc(Nc4ccc(C(=O)NO)cn4)c3)c(C)nc2c1 [Example 77, N-hydroxy-6-(4-(7-methoxy-2-methylimidazo[1,2-a]pyridin-3-yl)pyridin-2-ylamino)nicotinamide]	0.18 µM	

Reference: patent US8124764B2, “Fused heterocyclyc inhibitor compounds” (Gilead Sciences, Inc., priority 2008, dated 2012)
